From patent publication US10472356B2, “Bicyclic ketone sulfonamide compounds” (AMGEN INC., priority 2015, dated 2019)

Tests used:
[1] = target: T1, human Nav1.7 (Homo sapiens, UniProt Q15858); assay: Nav 1.7 In Vitro PatchXpress (PX) Assay; format: cell-based; conditions: HEK 293 cells stably transfected with human Nav1.7; PatchXpress whole cell voltage clamp; partially inactivated state (holding potential yielding 20 to 50% inactivation); read-out: hNav1.7 PX IC50
T1 construct: expressed in transfected cells; host or cells: HEK293
Outline: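 Whole-cell voltage clamp on HEK 293 cells stably expressing human Nav1.7 (automated patch), holding potential giving 20–50% inactivation; 20 ms pulses to −10 mV at 0.1 Hz. Single compound concentration applied 3 min, peak current inhibition measured; IC50 fitted from 3–5 cells per concentration.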

[2] = target: T1, human Nav1.7; assay: Nav 1.7 IWB In Vitro Assay (IonWorks Barracuda); format: cell-based; conditions: HEK293 cells stably transfected with human Nav 1.7; IonWorks Barracuda population patch-clamp; cells clamped to −20 mV for 4 minutes with compound; 26th pulse; read-out: hNav1.7 IWB IC50
Outline: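 Population patch clamp of HEK293 cells stably expressing human Nav 1.7: 26 pulses to −20 mV (150 ms, 5 Hz) from −110 mV, then 4 min at −20 mV with compound, 3 s recovery at −110 mV and the train repeated. % inhibition of 26th-pulse peak current vs no compound; IC50 from concentration-response curves.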

T1 sequence (Q15858 whole entry): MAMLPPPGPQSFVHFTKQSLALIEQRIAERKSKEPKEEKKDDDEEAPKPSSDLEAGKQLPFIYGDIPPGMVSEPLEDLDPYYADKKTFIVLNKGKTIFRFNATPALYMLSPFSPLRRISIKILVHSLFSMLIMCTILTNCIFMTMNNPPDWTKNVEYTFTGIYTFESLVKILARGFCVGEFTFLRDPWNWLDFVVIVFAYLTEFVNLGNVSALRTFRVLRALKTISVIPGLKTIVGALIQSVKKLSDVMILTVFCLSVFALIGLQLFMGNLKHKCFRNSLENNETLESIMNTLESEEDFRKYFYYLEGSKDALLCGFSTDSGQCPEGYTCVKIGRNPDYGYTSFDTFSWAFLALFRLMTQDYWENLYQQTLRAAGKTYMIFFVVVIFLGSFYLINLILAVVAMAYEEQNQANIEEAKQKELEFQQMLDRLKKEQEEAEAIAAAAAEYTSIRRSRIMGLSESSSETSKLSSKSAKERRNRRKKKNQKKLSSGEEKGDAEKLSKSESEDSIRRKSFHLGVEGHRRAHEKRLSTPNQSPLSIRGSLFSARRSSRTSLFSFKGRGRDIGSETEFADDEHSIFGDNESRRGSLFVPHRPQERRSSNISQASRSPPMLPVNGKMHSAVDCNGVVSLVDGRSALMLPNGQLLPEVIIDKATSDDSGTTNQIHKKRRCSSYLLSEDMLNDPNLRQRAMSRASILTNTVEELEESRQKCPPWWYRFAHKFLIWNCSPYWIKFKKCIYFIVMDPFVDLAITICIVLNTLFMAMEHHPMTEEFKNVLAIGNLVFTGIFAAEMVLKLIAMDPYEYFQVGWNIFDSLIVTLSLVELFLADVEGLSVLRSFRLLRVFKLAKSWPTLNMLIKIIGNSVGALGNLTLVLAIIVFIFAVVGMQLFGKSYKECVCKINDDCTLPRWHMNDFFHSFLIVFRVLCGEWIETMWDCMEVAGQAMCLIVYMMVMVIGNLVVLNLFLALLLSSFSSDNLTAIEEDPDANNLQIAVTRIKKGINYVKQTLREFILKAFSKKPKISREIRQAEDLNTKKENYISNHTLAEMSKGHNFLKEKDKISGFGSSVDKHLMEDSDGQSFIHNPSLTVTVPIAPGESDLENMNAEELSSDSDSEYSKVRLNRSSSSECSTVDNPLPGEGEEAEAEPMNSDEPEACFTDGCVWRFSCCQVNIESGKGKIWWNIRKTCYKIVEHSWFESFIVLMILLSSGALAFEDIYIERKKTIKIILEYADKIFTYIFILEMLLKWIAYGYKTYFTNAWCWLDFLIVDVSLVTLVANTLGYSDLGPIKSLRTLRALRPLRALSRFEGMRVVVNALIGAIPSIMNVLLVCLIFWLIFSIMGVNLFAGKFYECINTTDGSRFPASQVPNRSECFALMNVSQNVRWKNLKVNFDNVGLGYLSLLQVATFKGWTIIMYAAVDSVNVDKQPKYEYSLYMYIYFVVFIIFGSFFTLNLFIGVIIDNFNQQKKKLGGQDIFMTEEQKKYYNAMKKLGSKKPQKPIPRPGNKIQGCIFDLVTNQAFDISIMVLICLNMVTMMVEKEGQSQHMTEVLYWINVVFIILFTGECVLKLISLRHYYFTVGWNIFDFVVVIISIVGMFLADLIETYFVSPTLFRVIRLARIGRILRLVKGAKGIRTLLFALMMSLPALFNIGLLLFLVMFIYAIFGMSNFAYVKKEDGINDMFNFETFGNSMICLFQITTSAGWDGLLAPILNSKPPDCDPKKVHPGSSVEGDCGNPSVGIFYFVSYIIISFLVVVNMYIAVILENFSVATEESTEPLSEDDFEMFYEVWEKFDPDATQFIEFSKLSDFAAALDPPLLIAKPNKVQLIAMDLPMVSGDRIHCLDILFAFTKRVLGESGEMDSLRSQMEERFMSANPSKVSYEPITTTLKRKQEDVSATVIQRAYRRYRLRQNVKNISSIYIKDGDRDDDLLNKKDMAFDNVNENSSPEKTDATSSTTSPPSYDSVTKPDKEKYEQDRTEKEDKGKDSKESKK

`COc1cc(-c2ccc(F)c(C)c2)c(C)cc1-n1c2c(ccc1=O)CN(S(=O)(=O)Nc1cccnn1)CC2` (single isomer, unassigned) [Example 93-M, M-1-(4′-fluoro-5-methoxy-2,3′-dimethyl-[1,1′-biphenyl]-4-yl)-2-oxo-N-(pyridazin-3-yl)-1,2,7,8-tetrahydro-1,6-naphthyridine-6(5H)-sulfonamide] showed an IC50 [1] of 1800 nM and an IC50 [2] of 270 nM.

`COc1cc(-c2ccc(F)c(C)c2)c(C)cc1-n1c2c(ccc1=O)CN(S(=O)(=O)Nc1cccnn1)CC2` (single isomer, unassigned) [Example 93-P, P-1-(4′-fluoro-5-methoxy-2,3′-dimethyl-[1,1′-biphenyl]-4-yl)-2-oxo-N-(pyridazin-3-yl)-1,2,7,8-tetrahydro-1,6-naphthyridine-6(5H)-sulfonamide] gave an IC50 [1] of 116 nM and an IC50 [2] of 21.8 nM.

Molecule `COc1cc(-c2cc(F)cc(F)c2)c(F)cc1-n1c2c(ccc1=O)[C@@H](C)N(S(=O)(=O)Nc1ccon1)CC2` [Example 3-A-P, P-(5R)-N-3-isoxazolyl-5-methyl-2-oxo-1-(2,3′,5′-trifluoro-5-methoxy-4-biphenylyl)-1,5,7,8-tetrahydro-1,6-naphthyridine-6(2H)-sulfonamide] has an IC50 [1] of over 1000 nM and an IC50 [2] of 1200 nM.

Molecule `COc1cc(-c2cc(F)cc(F)c2)c(F)cc1-n1c2c(ccc1=O)[C@H](C)N(S(=O)(=O)Nc1ccon1)CC2` [Example 3-B-M, M-(5S)-N-3-isoxazolyl-5-methyl-2-oxo-1-(2,3′,5′-trifluoro-5-methoxy-4-biphenylyl)-1,5,7,8-tetrahydro-1,6-naphthyridine-6(2H)-sulfonamide] has an IC50 [1] of over 1000 nM and an IC50 [2] of over 30000 nM.

For `COc1cc(-c2cc(F)cc(F)c2)c(F)cc1-n1c2c(ccc1=O)CN(S(=O)(=O)Nc1ccon1)[C@H](C)C2` [Example 3-D-M, M-(7R)-N-3-isoxazolyl-7-methyl-2-oxo-1-(2,3′,5′-trifluoro-5-methoxy-4-biphenylyl)-1,5,7,8-tetrahydro-1,6-naphthyridine-6(2H)-sulfonamide], the IC50 [1] was over 1000 nM and the IC50 [2] was over 7500 nM.

In the case of `COc1cc(-c2cc(F)cc(C(F)(F)F)c2)c(F)cc1-n1c2c(ccc1=O)CN(S(=O)(=O)Nc1cccnn1)CC2` [Example 41, P-1-(2,3′-difluoro-5-methoxy-5′-(trifluoromethyl)-4-biphenylyl)-2-oxo-N-3-pyridazinyl-1,5,7,8-tetrahydro-1,6-naphthyridine-6(2H)-sulfonamide], the IC50 [1] is reported as 33 nM and the IC50 [2] is reported as 1.8 nM.

Work on `COc1cc(-c2cccc(C3CC3)c2)c(F)cc1-n1c2c(ccc1=O)CN(S(=O)(=O)Nc1cccnn1)CC2` [Example 42, P-1-(3′-cyclopropyl-2-fluoro-5-methoxy-4-biphenylyl)-2-oxo-N-3-pyridazinyl-1,5,7,8-tetrahydro-1,6-naphthyridine-6(2H)-sulfonamide] yielded an IC50 [1] of 76.6 nM and an IC50 [2] of 7.8 nM.

Work on `COc1cc(-c2cc(C)ccc2Cl)c(F)cc1-n1c2c(ccc1=O)CN(S(=O)(=O)Nc1cccnn1)CC2` [Example 43, P-1-(2′-chloro-2-fluoro-5-methoxy-5′-methyl-4-biphenylyl)-2-oxo-N-3-pyridazinyl-1,5,7,8-tetrahydro-1,6-naphthyridine-6(2H)-sulfonamide] yielded an IC50 [1] of 156 nM and an IC50 [2] of 3.8 nM.

`COc1cc(-c2ccc(F)c(F)c2)c(Cl)cc1-n1c2c(ccc1=O)CN(S(=O)(=O)Nc1ccon1)CC2` [Example 51, P-1-(2-chloro-3′,4′-difluoro-5-methoxy-4-biphenylyl)-N-3-isoxazolyl-2-oxo-1,5,7,8-tetrahydro-1,6-naphthyridine-6(2H)-sulfonamide] showed an IC50 [1] of 45.1 nM and an IC50 [2] of under 2 nM.

Molecule `COc1cc(-c2cc(OC)c(-n3c4c(ccc3=O)CN(S(=O)(=O)Nc3ccon3)CC4)cc2Cl)ccc1Cl` [Example 52, P-1-(2,4′-dichloro-3′,5-dimethoxy-4-biphenylyl)-N-3-isoxazolyl-2-oxo-1,5,7,8-tetrahydro-1,6-naphthyridine-6(2H)-sulfonamide] has an IC50 [1] of 22.9 nM and an IC50 [2] of 2.8 nM.

`COc1cc(-c2cc(F)cc(Cl)c2)c(Cl)cc1-n1c2c(ccc1=O)CN(S(=O)(=O)Nc1ccon1)CC2` [Example 53, P-1-(2,3′-dichloro-5′-fluoro-5-methoxy-4-biphenylyl)-N-3-isoxazolyl-2-oxo-1,5,7,8-tetrahydro-1,6-naphthyridine-6(2H)-sulfonamide] was tested, and the IC50 [1] was 5.2 nM and the IC50 [2] was 0.7 nM.

`COc1cc(-c2cccc(C(F)(F)F)c2)c(Cl)cc1-n1c2c(ccc1=O)CN(S(=O)(=O)Nc1ccon1)CC2` [Example 54, P-1-(2-chloro-5-methoxy-3′-(trifluoromethyl)-4-biphenylyl)-N-3-isoxazolyl-2-oxo-1,5,7,8-tetrahydro-1,6-naphthyridine-6(2H)-sulfonamide] was tested, and the IC50 [1] was 6.9 nM and the IC50 [2] was 0.5 nM.

`COc1ccc(Cl)cc1-c1cc(OC)c(-n2c3c(ccc2=O)CN(S(=O)(=O)Nc2cccnn2)CC3)cc1F` [Example 59, P-1-(5′-chloro-2-fluoro-2′,5-dimethoxy-[1,1′-biphenyl]-4-yl)-2-oxo-N-(pyridazin-3-yl)-1,2,7,8-tetrahydro-1,6-naphthyridine-6(5H)-sulfonamide] was tested, and the IC50 [1] was 48.1 nM and the IC50 [2] was 6.5 nM.

Molecule `COc1cc(-c2cc(Cl)cnc2OC)c(F)cc1-n1c2c(ccc1=O)CN(S(=O)(=O)Nc1cccnn1)CC2` [Example 60, P-1-(4-(5-chloro-2-methoxypyridin-3-yl)-5-fluoro-2-methoxyphenyl)-2-oxo-N-(pyridazin-3-yl)-1,2,7,8-tetrahydro-1,6-naphthyridine-6(5H)-sulfonamide] has an IC50 [1] of 420 nM and an IC50 [2] of 37.5 nM.

`COc1cc(-c2ccc(Cl)cc2)c(F)cc1-n1c2c(ccc1=O)CN(S(=O)(=O)Nc1cccnn1)CC2` [Example 61, P-1-(4′-chloro-2-fluoro-5-methoxy-[1,1′-biphenyl]-4-yl)-2-oxo-N-(pyridazin-3-yl)-1,2,7,8-tetrahydro-1,6-naphthyridine-6(5H)-sulfonamide] showed an IC50 [1] of 195 nM and an IC50 [2] of 24.1 nM.

In the case of `COc1cc(-c2cccc(Cl)c2)c(F)cc1-n1c2c(ccc1=O)CN(S(=O)(=O)Nc1cccnn1)CC2` [Example 62, P-1-(3′-chloro-2-fluoro-5-methoxy-[1,1′-biphenyl]-4-yl)-2-oxo-N-(pyridazin-3-yl)-1,2,7,8-tetrahydro-1,6-naphthyridine-6(5H)-sulfonamide], the IC50 [1] is reported as 75.8 nM and the IC50 [2] is reported as 8.6 nM.

Molecule `COc1ccc(-c2cc(OC)c(-n3c4c(ccc3=O)CN(S(=O)(=O)Nc3cccnn3)CC4)cc2F)cc1Cl` [Example 63, P-1-(3′-chloro-2-fluoro-4′,5-dimethoxy-[1,1′-biphenyl]-4-yl)-2-oxo-N-(pyridazin-3-yl)-1,2,7,8-tetrahydro-1,6-naphthyridine-6(5H)-sulfonamide] has an IC50 [1] of 321 nM and an IC50 [2] of 22.2 nM.

`COc1cc(-c2cc(C(F)(F)F)cnc2OC)c(F)cc1-n1c2c(ccc1=O)CN(S(=O)(=O)Nc1cccnn1)CC2` [Example 64, P-1-(5-fluoro-2-methoxy-4-(2-methoxy-5-(trifluoromethyl)pyridin-3-yl)phenyl)-2-oxo-N-(pyridazin-3-yl)-1,2,7,8-tetrahydro-1,6-naphthyridine-6(5H)-sulfonamide] was tested, and the IC50 [1] was 66.1 nM and the IC50 [2] was 1.9 nM.

`COc1cc(-c2cccc(Cl)c2OC)c(F)cc1-n1c2c(ccc1=O)CN(S(=O)(=O)Nc1cccnn1)CC2` [Example 65, P-1-(3′-chloro-2-fluoro-2′,5-dimethoxy-[1,1′-biphenyl]-4-yl)-2-oxo-N-(pyridazin-3-yl)-1,2,7,8-tetrahydro-1,6-naphthyridine-6(5H)-sulfonamide] showed an IC50 [1] of 251 nM and an IC50 [2] of 8.5 nM.
